Source: patent publication US20110097410A1, “FORMULATIONS OF PX COMPOUNDS” (priority 2007, published 2011)

What was measured:
[1] = solubility in aqueous solutions; assay type: physicochemical
Excerpt: Despite the apparent efficacy of PX compounds in treating various disease conditions, their use is limited due to a problem of extremely low solubility. […] This very poor solubility generally leads to insufficient bioavailability alter administration, likely because the dissolution velocity is too slow.

[2] = tested on: ischemia-reperfusion in the heart; assay: infarct size after regional ischemia/reperfusion in the heart; assay type: in vivo, Rabbits; details: PX-18 60 mg/kg ip; P<0.05
Experimental: The protective effect of PX-18 during ischemia-reperfusion in the heart was assessed. Since opening of mitochondrial KATP channels are essential components of ischemic tolerance induced by preconditioning in heart, the role of these channels in PX-18-induced cardioprotection was also examined. Briefly, 180 mg of PX-18 was put into a small homogenizing tube containing 3 ml of ethylene glycol in a homogenizing tube and warming it to about 50° C. Several bursts of sonication (about 10 seconds) were applied in a nitrogen gas bath to minimize oxidation, followed by homogenization. This procedure was repeated 4-5 times until a uniform cloudy proportion that was easily injected through a needle was obtained. Procedures of this type generate PX-18 particles of a size in the micrometer range. Rabbits were treated with the sonicated preparation, of PX-18 (60 mg/kg ip). 30 minutes later the hearts were subjected to 30 minutes of regional ischemia followed by 3 hours of reperfusion. Mitochondrial KATP channel blocker 5-hydroxydecanoate (5-HD, 5 mg/kg iv) was given 10 min before ischemia/reperfusion. Infarct size was measured by computer morphometry of tetrazolium stained sections.

[3] = tested on: Rabbits; details: rabbit, in vivo, iv
[4] = dissolution velocity: amount suspended in water after 5 minutes (gravimetry); assay type: physicochemical
Experimental: 1 ml of macrosuspension (PX powder, dispersed in water) and 1 ml of PX-18 nanosuspension (diameter 40 nm) was added to 9 ml of de-mineralised water and stirred with a magnetic stirrer for 5 minutes. Each 10 ml sample was then filtered to remove non-suspended PX-18, and the amount of suspended PX-18 was determined by gravimetry. While the concentration of PX-18 in both suspensions was 1% (w/w), about 91% of the nanoparticles had become suspended within 5 minutes compared to just 8.4% of the macrosuspension.
To farther assess the importance of nanoparticle size on the dissolution velocity of PX-18, the dissolution velocity of PX-18 nanoparticles with a size of 40 nm was compared to that of PX-18 nanoparticles with a size of 200 nm. The analysis was performed as described above. After 5 minutes, about 91% of the 40 nm particles were suspended, whereas die larger 200 nm nanoparticles were suspended to about 41%.

[5] = tested on: hippocampus neurons after ischemia; assay: common carotid artery occlusion, alive hippocampal neurons; assay type: in vivo, Gerbils; details: 1% nanoparticle formulation, 40-50 nm, subcutaneously 5 min, 24 hr and 48 hr after ischemia, day 4
Experimental: Common carotid arteries of Gerbils (6 gerbils per group) were occluded for 5 minutes to induce ischemia. Thereafter, a nanoparticle formulation of PX-18 (1% formulation, particles size of 40-50 nanometers) was administered subcutaneously 5 min, 24 hr and 48 hr after ischemia. After surgery, the gerbils were returned to their cages where, upon awakening, they were able to resume their normal locomotor functions. They were sacrificed on day 4. The hippocampus was sectioned and the number of alive neurons was assessed. In the ischemic animals, sPLA2 unregulated within 24 hr after ischemia and most neurons were dead by 4 days. PX-18 reduced neuronal damage in a dose dependent manner, providing approximately 30% protection at a dose of 30 mg/kg and 45% protection at a dose of 60 mg/kg, […]

[6] = solubility in solvents; assay type: physicochemical
Excerpt: PX-18, a specific inhibitor of sPLA2, is a fatty moiety feat is soluble in methylene chloride, chloroform and ethyl acetate. […] Its solubility in water is typically very low.

[7] = tested on: pial arterioles; assay: basal and induced pial arteriolar dilation and hemodynamics; assay type: in vivo, newborn piglets
Experimental: (§1) The ability of PX-18 nanoparticles to influence 1) basal and induced arterial dilation; and 2) ischemia-induced impaired vasodilation (due to bradykinin, N-methyl-D-aspartic acid (NMDA) and ischemia-reperfusion) was studied in newborn piglets (1-2-day old, n=44). The piglets were anesthetized, ventilated, and equipped with arterial and venous catheters and a closed cranial window. Xanoparticulate PX-18 was administered iv at a concentration of 6 mg/kg.

[8] = tested on: ischemia-induced impaired vasodilation; assay: ischemia-induced impaired vasodilation; assay type: in vivo, newborn piglets; details: for effect on impaired hypercapnic vasodilation after global ischemia: FIG. 11
Experimental: as §1
The protocol for testing the effect of ischemia-induced impaired vasodilation is preseted in FIG. 8. […] In addition, intravenous but not topical treatment with PX-18 restored impaired hypercapnic vasodilation after global ischemia (FIG. 11).

[9] = particle size after high pressure homogenization (photon correlation spectroscopy); assay type: physicochemical
Experimental: PX-18 powder was dispersed in a 1% Tween 80 carrier. The composition of the formulation was 1% PX-18, 1% Tween 80 and 98% water. The obtained macrosuspension was passed through a micron LAB 40 homogenizer (APV Homogenizer Systems, Unna/Germany) at 1500 bar, applying one homogenization cycle. The particle size was determined by photon correlation spectroscopy (PCS, Malvern Zetasizer Nano ZS, Malvern Instruments, United Kingdom), The mean particle size (z-average) was 745 nm.
A second macrosuspension of PX-18 was prepared as described above, and subsequently homogenized. The homogenization parameters were 1500 bar and 20 homogenization cycles.
A suspension of 1% PX-13 was prepared in an aqueous preparation of 2% Planta Care 2000. After homogenization applying 20 cycles at 1500 bar, a PCS mean diameter of 33 nm was obtained.

## CCCCCCCC/C=C\CCCCCCCC(=O)OCCN(CCOC(=O)CCCCCCC/C=C\CCCCCCCC)CCS(=O)(=O)O [PX-18]
[1]
  solubility in aqueous solutions: approximately 24 μg/ml
[2]
  reduction of infarct size versus vehicle: 43%
[3]
  survival: did not survive
[4]; macrosuspension (powder, μm-sized particles), 1% (w/w), 1 ml in 9 ml de-mineralised water, stirred 5 minutes
  amount suspended: 8.4%
[4]; nanoparticles with a size of 200 nm, after 5 minutes
  amount suspended: about 41%
[5]; 30 mg/kg
  protection against neuronal damage: approximately 30%
[5]; 60 mg/kg
  protection against neuronal damage: ~45%
[6]; in acetone and methanol
  solubility: insoluble
[6]; in dimethylsulfoxide (DMSO)
  solubility: limited solubility
[6]; in methylene chloride, chloroform and ethyl acetate
  solubility: soluble
[6]; in water
  solubility: very low
[7]; after iv bolus, 6 mg/kg
  time to normalization of MABP and pial arteriole diameter: 4 to 6 min
[7]; intravenous, FIG. 6
  effect on basal and hypercapnia-induced (endothelium and COX dependent) pial arterial dilation: did not influence
[7]; iv bolus of nanoparticle formulation, 6 mg/kg, transient
  pial arteriole dilation: 32±1%
[7]; iv bolus of nanoparticle formulation, 6 mg/kg, transient decrease from 62±7 mmHg
  mean arterial blood pressure (MABP) after bolus: 40±5 mmHg
[7]; nanoparticle formulation, 10^−4M, topically onto the brain surface
  pial arteriole dilation (Mean±SEM): 16±5%
[7]; topical, FIG. 7
  effect on PACAP induced (non-endothelium but COX-dependent) pial arteriolar dilation: impaired
[8]; intravenous treatment
  effect on impaired hypercapnic vasodilation after global ischemia: restored
[8]; iv administered, NMDA 10^−4M, FIG. 10
  effect on ischemia-induced impaired vasodilation caused by N-methyl-D-aspartic acid: counteracts
[8]; iv administered, bradykinin 10^−8M, FIG. 9
  effect on ischemia-induced impaired vasodilation caused by bradykinin: counteracts
[8]; topical treatment
  effect on impaired hypercapnic vasodilation after global ischemia: not topical

## CCCCCCCC/C=C\CCCCCCCC(=O)OCC(COC(=O)CCCCCCC/C=C\CCCCCCCC)(COC(=O)CCCCCCC/C=C\CCCCCCCC)NCCS(=O)(=O)O [PX-13]
[1]
  solubility in aqueous solutions: about 5 μg/ml
[9]; 1% PX-13 in aqueous 2% Planta Care 2000, 20 cycles at 1500 bar
  PCS mean diameter: 33 nm
[9]; one homogenization cycle at 1500 bar
  particle size (PCS, z-average): 400-900 nm
